This is an account of results in BindingDB's records for doi:10.1016/j.ejmech.2021.113681 (Moscow State University, 2021).

In general, IC50 refers to the point on the concentration scale where inhibition reaches its midpoint.

A short description of the experiment: Inhibition of gp120 in HIV-1 subtype B #11578 harboring pseudotyped Env pWEAUd15.410.5017 infected in human TZM-bl cells assessed as reduction in viral infection pretreated for 30 mins before viral infection and measured after 3 days by luciferase based single cycle infection assay.
With `Cc1nc([C@H](CN)NC(=O)c2cc3ccccc3[nH]2)sc1CO`, the IC50 was over 60 µM.
Turning to `NC[C@@H](NC(=O)c1ccc(OCC2CCCCC2)cc1)c1ncc(CO)s1`, the IC50 was over 15 µM.
For the molecule `NC[C@H](NC(=O)c1ccc(NCC2CCCCC2)cc1)c1ncc(CO)s1`, the IC50 is over 15 µM.
The result for `NC[C@@H](NC(=O)C(=O)NCc1ccc(Cl)c(F)c1)c1ncc(CO)s1` reads over 15 µM; that for `NC[C@H](NC(=O)CNCc1ccc(Cl)cc1)c1ncc(CO)s1`, over 23.4 µM; that for `Cc1nc([C@@H](CN)NC(=O)C(=O)Nc2ccc(Cl)cc2)sc1CO`, over 27 µM.
The value for `NC[C@H](NC(=O)C(=O)NCc1ccc(Cl)c(F)c1)c1ncc(CO)s1` was over 15 µM; that for `NC[C@H](NC(=O)c1ccc(-c2ccc(Cl)cc2)[nH]1)c1nccs1` was 0.8 µM.
The result for `Cc1nc([C@@H](CN)NC(=O)NC(=O)c2ccc(Cl)cc2)sc1CO` reads over 54 µM.
Regarding `Cc1nc([C@H](CN)NC(=O)c2cc3cc(Cl)ccc3[nH]2)sc1CO`, the IC50 was over 40 µM.
The result for `NC[C@@H](NC(=O)CNCc1ccc(Cl)cc1)c1ncc(CO)s1` reads over 23.4 µM; that for `NCCNC(=O)c1ccc(-c2ccc(Cl)c(F)c2)[nH]1`, 3.8 µM.
For the molecule `Cc1nc([C@@H](CCN)NC(=O)C(=O)Nc2ccc(Cl)cc2)sc1CO`, the IC50 is over 15 µM.
The value for `Cc1nc([C@H](CN)NC(=O)NC(=O)c2ccc(Cl)cc2)sc1CO` was over 54 µM.
The result for `NC[C@@H](NC(=O)c1ccc(NCC2CCCCC2)cc1)c1ncc(CO)s1` reads over 15 µM; that for `NC[C@H](NC(=O)c1ccc(OCC2CCCCC2)cc1)c1ncc(CO)s1`, over 15 µM.
The result for `O=C(NC1CCNCC1)c1ccc(-c2ccc(Cl)c(F)c2)[nH]1` reads 6.6 µM.
Turning to `NC[C@H](NC(=O)c1ccc(C2CCCCC2)[nH]1)c1ncc(CO)s1`, the IC50 is over 28 µM.
The result for `Cc1nc([C@@H](CN)NC(=O)c2cc3ccccc3[nH]2)sc1CO` reads over 60 µM; that for `CC1(C)CC(NC(=O)c2ccc(-c3ccc(Cl)c(F)c3)[nH]2)CC(C)(C)N1`, 6.2 µM.
The result for `Cc1nc([C@H](CN)NC(=O)C(=O)Nc2ccc(Cl)cc2)sc1CO` reads over 27 µM; that for `Cc1nc([C@H](CCN)NC(=O)C(=O)Nc2ccc(Cl)cc2)sc1CO`, over 15 µM; that for `Cc1nc([C@@H](CN)NC(=O)c2cc3cc(Cl)ccc3[nH]2)sc1CO`, over 40 µM.
Consider `O=C(NC1(c2nc(CO)cs2)CCNCC1)c1ccc(-c2ccc(C(F)(F)F)cc2)[nH]1`, for which the 50% inhibitory concentration (IC50) turned out to be 11.4 µM.
The result for `O=C(N[C@H](CC1CCNCC1)c1nc(CO)cs1)c1ccc(-c2ccc(C(F)(F)F)cc2)[nH]1` reads 12.4 µM; that for `NC[C@@H](NC(=O)c1ccc(C2CCCCC2)[nH]1)c1ncc(CO)s1`, over 28 µM.
The result for `NC[C@@H](NC(=O)Cc1ccc(OCC2CCCCC2)cc1)c1ncc(CO)s1` reads over 25 µM; that for `O=C(N[C@@H](CC1CCNCC1)c1nc(CO)cs1)c1ccc(-c2ccc(C(F)(F)F)cc2)[nH]1`, 8.5 µM; that for `NC[C@H](NC(=O)Cc1ccc(OCC2CCCCC2)cc1)c1ncc(CO)s1`, over 25 µM.
The result for `NC[C@@H](NC(=O)c1ccc(-c2ccc(Cl)cc2)[nH]1)c1nccs1` reads 3.3 µM.
